Experimental data published in patent US12410136B2, “Pyridinyl morpholine compound, preparation method therefor, and application thereof” (SHANGHAI ZHONGZE THERAPEUTICS, CO. LTD., priority 2020, dated 2025).
Where two headings read alike, the source gives them in different places.

How the values were obtained:
[1] = Acute toxicity experiment, single oral administration; settings: ICR, mouse, in vivo
Protocol: Acute Toxicity Experiments of the Compound
2) Solvent preparation: An appropriate amount of Tween-80 was weighed and diluted with deionized water to a concentration of […] (g/v) Tween-80.
4) Route of administration: The administration route of the test samples and the solvent control group (0.5% Tween-80) was oral administration.
5) Frequency of administration: Single administration, fasting overnight before administration.
6) Dosing capacity: 20 mL/kg.
[…]; the observation period was 2 to 6 days, twice a day, once in the morning and once in the afternoon.
The observation content includes, but is not limited to, general condition, behavioral activity, gait posture, eye, mouth, nose, gastrointestinal tract, skin hair, urogenital tract.
Body weight data were expressed as mean±standard deviation, and were compared between groups using Levene's test and one-way ANOVA. If there were differences, Dunnet t test was used.
In the MTD test, the tolerance of the animals to the drug was investigated, and the maximum tolerated dose was reached when the animals were dying frequently.

[2] = test system: mouse schizophrenic model induced by Apo.; experiment: Apomorphine model experiment (stereotyped motion); format: in vivo, C57BL/6 mice; settings: for ED50: Mus musculus, single oral administration, apomorphine 5 mg/kg i.p., mice, read-out: Inhibition of total stereotyped motion of mouse schizophrenic model induced by Apo., ED50; for Effect (ED50) on the stereotyped behavior of mice compared with cariprazine: apomorphine model, oral
Protocol: 1. Apomorphine Model Experiment
1) 4 point, continuous biting;
2) 3 point, the cage lid was bit at least once during observation;
3) 2 point, the cage chassis or cage wall was licked at least once during observation;
4) 1 point, compulsive sniffing and bowing activities were appeared;
5) 0 point, no of the above activities.
The total score of the mice was calculated for the above behaviors within 70 min, and the improvement rate was calculated according to the following formula.
During the experiment, the clinical response symptoms of the animals were recorded.
All data were expressed as x±SEM, processed with the 11.5 software statistical package, and t-test and one-way analysis of variance were performed for the comparison of the means of the two samples, with P<0.05 as a significant difference.

[3] = test system: mouse model of schizophrenia induced by MK-801; experiment: MK-801 model experiment (open-field motion); settings: for ED50: Mus musculus, 1.5 h, read-out: Effect on the total distance of open-field motion in mouse model of schizophrenia induced by MK-801, ED50; for Improvement rate on open-field motion of mice compared with cariprazine: MK-801 model, oral
Protocol: An acute mode of administration was used in the experiment. The experimental mice were randomly divided into groups and put into a spontaneous activity box to adapt for 5-10 minutes before the experiment. […] The data were expressed as mean±standard error (Mean±SEM), and were analyzed using GraphPad Prism software, and data analysis was performed using t-test, and a significant difference was considered to exist when P<0.05.

D2 receptor = D2 receptor (Homo sapiens, UniProt P14416); experiment: Dopamine D2 receptor binding test
Sequence of D2 receptor (P14416 whole entry): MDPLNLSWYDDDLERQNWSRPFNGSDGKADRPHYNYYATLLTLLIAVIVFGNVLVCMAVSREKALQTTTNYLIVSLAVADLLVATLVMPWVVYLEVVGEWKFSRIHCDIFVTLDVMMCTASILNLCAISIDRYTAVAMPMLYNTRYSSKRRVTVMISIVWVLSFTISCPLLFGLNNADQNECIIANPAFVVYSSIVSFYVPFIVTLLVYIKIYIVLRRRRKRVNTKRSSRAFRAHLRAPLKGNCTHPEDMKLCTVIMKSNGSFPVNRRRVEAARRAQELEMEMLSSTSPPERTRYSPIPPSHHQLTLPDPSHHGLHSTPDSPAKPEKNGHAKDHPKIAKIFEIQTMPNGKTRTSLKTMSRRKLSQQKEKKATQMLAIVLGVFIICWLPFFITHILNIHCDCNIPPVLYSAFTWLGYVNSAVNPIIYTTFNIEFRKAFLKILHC
Protocol: Dopamine D2 Receptor Binding Test
In this experiment, HEK293 cells were transfected with plasmid vector containing D2 receptor protein gene, and calcium phosphate transfection method was used and after transfection, the cells were cultured in a culture solution containing G418, and the cell monoclonal and radioligand binding experiments were selected, and finally a stable cell line which could stably express D2 receptor protein was obtained.
HeK-293 cells were infected with recombinant viruses containing the above various genes respectively, and after 48-72 hours, the receptor proteins were expressed in large quantities on the membrane, and the cells were centrifuged at 1000 rpm for 5 min and then the culture solution was discarded, and the cells were collected, and stored in a −20° C. refrigerator for later use. Tris-HCl reaction buffer (pH=7.5) was used to resuspend in the experiment.
On the Millipore cell sample collector, the mixture was quickly filtrated under reduced pressure through GF/C glass fiber filter paper, and eluted with 3 mL of eluent (50 mMTris-HCl, pH 7.5) for 3 times, then dried under microwave for 5 to 6 min. The filter paper was moved into a 0.5 mL centrifuge tube, and 500 μL of lipid-soluble scintillation solution was added. The mixture was kept in the dark for more than 30 min, and the radioactivity intensity was determined by counting. […] Two replicate tubes were made for each experiment of compound, and two separate experiments were performed.
Two tubes were tested for each concentration and two independent tests were performed for each compound.

5-HT2A receptor = target: T1, 5-HT2A receptor (Homo sapiens, UniProt P28223); experiment: 5-HT2A receptor binding test
T1 construct: expressed in transfected cells; host or cells: HEK293
T1 sequence (P28223 whole entry): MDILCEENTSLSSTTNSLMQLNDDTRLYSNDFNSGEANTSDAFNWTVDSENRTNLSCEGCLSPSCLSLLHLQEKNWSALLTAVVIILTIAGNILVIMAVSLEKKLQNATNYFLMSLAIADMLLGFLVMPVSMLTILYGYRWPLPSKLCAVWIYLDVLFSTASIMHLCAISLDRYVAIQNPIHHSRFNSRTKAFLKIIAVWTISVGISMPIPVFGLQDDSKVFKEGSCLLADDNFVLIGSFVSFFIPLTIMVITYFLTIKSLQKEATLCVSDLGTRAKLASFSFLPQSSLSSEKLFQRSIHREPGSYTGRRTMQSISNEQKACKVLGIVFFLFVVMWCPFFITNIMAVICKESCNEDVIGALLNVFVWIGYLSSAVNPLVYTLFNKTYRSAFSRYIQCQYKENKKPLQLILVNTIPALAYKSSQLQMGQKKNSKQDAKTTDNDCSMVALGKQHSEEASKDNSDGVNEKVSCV
Description: 5-HT2A Receptor Binding Test
Beckman LS-6500 multifunctional liquid scintillation counter.
Tris-HCl reaction buffer (pH 7.7) was used to resuspend in the experiment.

H1 receptor = target: T2, H1 receptor (Homo sapiens, UniProt P35367); experiment: H1 receptor binding test; settings: 1 nM [3H]pyrilamine, HEK-293 cell membrane homogenate; read-out: Affinity of the compound for H1 receptor (Ki value, nM) H1
T2 construct: expressed in transfected cells; host or cells: HEK-293
T2 sequence (P35367 whole entry): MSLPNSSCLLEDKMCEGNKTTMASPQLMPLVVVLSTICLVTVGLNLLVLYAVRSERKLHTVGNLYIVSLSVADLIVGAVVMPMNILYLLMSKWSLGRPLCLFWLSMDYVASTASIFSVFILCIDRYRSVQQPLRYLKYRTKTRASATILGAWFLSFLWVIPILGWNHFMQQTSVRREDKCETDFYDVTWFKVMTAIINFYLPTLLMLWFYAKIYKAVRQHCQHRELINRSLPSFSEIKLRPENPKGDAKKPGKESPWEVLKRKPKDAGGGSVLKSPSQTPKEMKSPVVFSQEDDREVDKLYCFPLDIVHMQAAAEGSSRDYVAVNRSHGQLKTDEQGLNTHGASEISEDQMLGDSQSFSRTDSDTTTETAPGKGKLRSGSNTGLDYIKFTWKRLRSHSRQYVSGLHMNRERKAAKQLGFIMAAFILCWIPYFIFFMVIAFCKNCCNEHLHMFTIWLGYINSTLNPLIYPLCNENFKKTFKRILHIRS
Protocol: Non-specific binding was determined in the presence of 1 μM pyrilamine.

[4] = target: T3, human recombinant D3 receptor (Homo sapiens, UniProt P35462); experiment: Dopamine D3 receptor binding test; settings: [3H]methyl-spiperone 0.3 nM, human recombinant D3 receptor expressed in CHO cells; read-out: Affinity of the compound for each receptor (Ki value, nM) D3
T3 construct: expressed in transfected cells; host or cells: CHO
T3 sequence (P35462 whole entry): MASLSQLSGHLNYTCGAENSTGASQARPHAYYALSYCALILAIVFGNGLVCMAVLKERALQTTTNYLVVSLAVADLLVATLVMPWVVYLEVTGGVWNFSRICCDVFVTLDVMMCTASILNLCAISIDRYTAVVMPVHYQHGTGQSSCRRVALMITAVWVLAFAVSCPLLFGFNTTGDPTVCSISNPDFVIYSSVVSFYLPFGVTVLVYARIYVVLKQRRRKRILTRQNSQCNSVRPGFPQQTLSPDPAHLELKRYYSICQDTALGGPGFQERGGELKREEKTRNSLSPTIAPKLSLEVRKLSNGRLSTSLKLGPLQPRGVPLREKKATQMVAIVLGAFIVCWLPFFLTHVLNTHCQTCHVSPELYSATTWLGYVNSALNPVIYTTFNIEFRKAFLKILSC
Protocol: Dopamine D3 Receptor Binding Test
[^3H]methyl-spiperone (0.3 nM) was used as the ligand, and (+)-butaclamol (10 μM) was used to determine the non-specific binding, and the binding assay was performed on human recombinant D3 receptor (expressed in CHO cells).

[5] = single oral administration, ICR mice, read-out: MTD (maximum tolerance)
[6] = [3H]-Ketanserin, 5-HT2A receptor expressed in HEK293 cells, read-out: Affinity of the compound for each receptor (Ki value, nM) 5-HT2A

Row | Compound | MTD [1] [mg/kg] | ED50 [2] [mg/kg] | ED50 [3] [mg/kg] | Ki (D2 receptor) [nM] | Ki (5-HT2A receptor) [nM] | Ki (H1 receptor) [nM] | MTD [1, 5] [mg/kg] | Effect (ED50) on the stereotyped behavior of mice compared with cariprazine [2] | Ki [4] [nM] | Ki (5-HT2A receptor; [6]) [nM] | Improvement rate on open-field motion of mice compared with cariprazine [3]
1 | CN(C)C(=O)N[C@H]1CC[C@H](CCN2CCN(c3cccc(Cl)c3Cl)CC2)CC1 [Cariprazine, cariprazine, reference compound] | 320 | 0.3 | 0.15 | – | – | – | – | – | – | – | –
2 | CCOC(=O)N[C@H]1CC[C@H](CCN2CCN(c3cc(-c4ccccc4)cc(N4CCOCC4)n3)CC2)CC1 [Compound I-3, ethyl ((trans)-4-(2-(4-(6-morpholino-4-phenylpyridin-2-yl)piperazin-1-yl)ethyl)cyclohexyl)carbamate] | – | 0.19 | 0.33 | 2.5 | 2.1 | > 1000 | ≥ 400 | better effects | 0.08 | – | –
3 | O=C(N[C@H]1CC[C@H](CCN2CCN(c3cc(-c4ccccc4)cc(N4CCOCC4)n3)CC2)CC1)c1ccco1 [Compound I-6, N-((trans)-4-(2-(4-(6-morpholino-4-phenylpyridin-2-yl)piperazin-1-yl)ethyl)cyclohexyl)furan-2-carboxamide] | – | 0.43 | 0.2 | 0.14 | – | > 1000 | > 2000 | – | 0.02 | 1 | –
4 | O=C(N[C@H]1CC[C@H](CCN2CCN(c3cc(-c4ccco4)cc(N4CCOCC4)n3)CC2)CC1)N1CCOCC1 [Compound V-5, N-(trans-4-(2-(4-(4-(furan-2-yl)-6-morpholinopyridin-2-yl)piperazin-1-yl)ethyl)cyclohexyl)morpholine-4-carboxamide] | – | 0.78 | 0.51 | 1 | – | > 1000 | ≥ 400 | – | 0.04 | 2.9 | –
5 | O=C(N[C@H]1CC[C@H](CCN2CCN(c3cc(-c4ccc(F)cc4)cc(N4CCOCC4)n3)CC2)CC1)c1cccnc1 [II-2, N-(trans-4-(2-(4-(4-(4-fluorophenyl)-6-morpholinopyridin-2-yl)piperazin-1-yl)ethyl)cyclohexyl)nicotinamide] | – | 0.08 | 0.07 | 0.9 | – | > 1000 | ≥ 400 | better effects | 0.07 | 2.4 | better
6 | CCCN(C)C(=O)N[C@H]1CC[C@H](CCN2CCN(c3cc(-c4ccc(F)cc4)cc(N4CCOCC4)n3)CC2)CC1 [II-6, 3-(trans-4-(2-(4-(4-(4-fluorophenyl)-6-morpholinopyridin-2-yl)piperazin-1-yl)ethyl)cyclohexyl)-1-methyl-1-propylurea] | – | 0.13 | 0.1 | 1 | – | > 1000 | – | better effects | 0.04 | 1.3 | better
7 | O=C(N[C@H]1CC[C@H](CCN2CCN(c3cc(-c4cccnc4)cc(N4CCOCC4)n3)CC2)CC1)c1ccco1 [IV-2] | – | 0.1 | 0.05 | 0.9 | – | > 1000 | > 2000 | better effects | 0.03 | 1.1 | better
8 | CC(=O)N[C@H]1CC[C@H](CCN2CCN(c3cc(-c4cccs4)cc(N4CCOCC4)n3)CC2)CC1 [VI-1, N-(trans-4-(2-(4-(6-morpholino-4-(thiophen-2-yl)pyridin-2-yl)piperazin-1-yl)ethyl)cyclohexyl)acetamide] | – | 0.55 | 0.12 | 0.8 | – | > 1000 | – | – | 0.05 | 1.6 | better
9 | O=C(N[C@H]1CC[C@H](CCN2CCN(c3cc(-c4cccs4)cc(N4CCOCC4)n3)CC2)CC1)N1CCCC1 [VI-5, N-(trans-4-(2-(4-(6-morpholino-4-(thiophen-2-yl)pyridin-2-yl)piperazin-1-yl)ethyl)cyclohexyl)tetrahydropyrrole-1-carboxamide] | – | 0.16 | 0.08 | 1 | – | > 1000 | > 2000 | better effects | 0.07 | 1.1 | –
10 | CN(C)C(=O)N[C@H]1CC[C@H](CCN2CCN(c3cc(-c4ccc[nH]4)cc(N4CCOCC4)n3)CC2)CC1 [VII-4, 1,1-dimethyl-3-(trans-4-(2-(4-(6-morpholino-4-(1H-pyrrol-2-yl)pyridin-2-yl)piperazin-1-yl)ethyl)cyclohexyl)urea] | – | 0.2 | 0.25 | 0.6 | – | > 1000 | ≥ 400 | better effects | 0.03 | 1.1 | –
11 | O=C(N[C@H]1CC[C@H](CCN2CCN(c3cc(-c4ccc[nH]4)cc(N4CCOCC4)n3)CC2)CC1)N1CCCCC1 [VII-5, N-(trans-4-(2-(4-(6-morpholino-4-(1H-pyrrol-2-yl)pyridin-2-yl)piperazin-1-yl)ethyl)cyclohexyl)piperidine-1-carboxamide] | – | – | – | 4 | – | > 1000 | – | – | 0.3 | 7.9 | –
